Measurements reported in publication PMC9780888, “4-Isobutylmethcathinone—A Novel Synthetic Cathinone with High In Vitro Cytotoxicity and Strong Receptor Binding Preference of Enantiomers” (Pharmaceuticals, 2022).
Where two headings read alike, the source gives them in different places.

System: 5637, SH-SY5Y, HMC-3, Hep G2, L929; HaCaT, CaCo-2, MRC-5, BJ cells
Assay: WST-1 viability assay, summary ranges over groups of cell lines
Assay type: cell-based
Method: Based on the novelty of the IMBcat compound, we aimed to evaluate its in vitro cytotoxicity in selected model cell lines as well as to determine the toxicity of the IBMcat enantiomers, since both the chemical structure and chirality of compounds could play a role in their bioactivity (Table 2). The cytotoxic profile of the IBMcat was determined by a WST-1 viability assay after 72-h treatment. For this purpose, cell lines derived from distinct tissues, often affected by NPSs, were chosen, i.e., cells of kidney, hepatic, neural, urinary, and intestinal origin as well as keratinocytes and primary fibroblasts (HEK 293T, Hep G2, HMC-3, SH-SY5Y, 5637, CaCo-2, HaCaT, MRC-5, and BJ, respectively). […]
In this study, the following cell lines were used: HEK 293T, Hep G2, HMC-3, SH-SY5Y, 5637, CaCo-2, HaCaT, MRC-5, BJ, and L929. […] The selected cell lines were chosen so that not only primary noncancerous cells are evaluated but also cells derived from tissues, which are the most often affected by novel synthetic drugs, i.e., kidney, liver, urinary bladder, and nervous tissue. […]
The cytotoxicity of IBMCat was evaluated in vitro by using a WST-1 viability assay (Sigma-Aldrich, Saint Louis, MO, USA) based on the transformation of a tetrazolium salt into colored formazan in metabolically active cells. […] After 72 h of additional incubation of the cells, their viability was determined by WST-1. […]

For `CNC(C)C(=O)c1ccc(CC(C)C)cc1.Cl` (centres unmarked) [IBMcat, 4-isobutylmethcathinone hydrochloride], which IC50 (5637, SH-SY5Y, HMC-3 and Hep G2 cells, after 72 h, read-out: IC50 values (range over cell lines)) is on record?
The IC50 was 18 to 65 µM.

And the IC50 (HaCaT, CaCo-2, MRC-5 and BJ cells, 72 h, racemate and enantiomers, read-out: IC50 (range over cell lines))?
The IC50 was 329 to 749 µM.
